Laboratory results from US12667582B2, “Composition containing 2′-FL for ameliorating, preventing or treating diseases caused by reduction of dopamine” (priority 2022, dated 2026).

Legend:
[1] = test system: TH (+) cells in the substantia nigra; assay: Tyrosine hydroxylase (TH) immunohistochemistry of dopaminergic neurons in substantia nigra; type: in vivo, mouse; conditions: 6-OHDA HBr injected into left striatum; top of FIG. 6
Description: The mouse was anesthetized with chloral hydrate (400 mg/kg, ip) and fixed in a stereotaxic frame. 6-OHDA HBr (276 μg/μl×5 μl) was injected through a Hamilton microsyringe into two left striatum sites (1 mm AP, […] relative to bregma and […] and 1 mm AP, […] relative to bregma and […]) for 4 minutes (Day 0). Then, the mouse recovered from anesthesia was maintained at body temperature in a 37° C. incubator for 2 hours.
2′-FL (500 μM×20 μl) and saline (control; 20 μl) were injected into the nose from days 0 to 28. To determine whether or not Parkinson's disease was induced and to observe behavioral changes, methamphetamine was administered to […] and behavioral changes were observed on days 7, 21, and 28, respectively (FIG. 3). FIG. 3 illustrates the timeline of an in vivo experiment.
After the rotation test, the animals were slaughtered and brain tissue was removed therefrom (Veh, n=5; 2′-FL, n=4). The distribution of dopaminergic neurons was measured by immunohistochemistry using tyrosine hydroxylase (TH).
Specifically, the entire brain was sectioned to a thickness of 25 μm using a cryosection machine. […] The brain tissue was bound with a secondary antibody (concentration 1:500) and then was attached to a glass slide and expression was observed using a fluorescence microscope.

[2] = test system: dopaminergic neuron culture from ventral mesencephalon tissue; assay: 6-OHDA-mediated dopaminergic degeneration in primary ventral mesencephalon neuron culture (tyrosine hydroxylase immunocytochemistry); type: cell-based, Sprague-Dawley rats; conditions: 6-OHDA 100 μM alone, 48 hours, FIG. 2
Description: Dopaminergic neuron culture was prepared from ventral mesencephalon tissue of E14-E15 embryos obtained from pregnant Sprague-Dawley rats. Specifically, the dissected ventral brain tissue was pooled and agitated for 15 minutes at 37° C. to separate the cells in pre-warmed trypsin EDTA (025%) and then the cells were washed with DMEM (Dulbecco's modified Eagle medium)/F12 culture medium. After washing, essential growth factors were added thereto, followed by culturing. 50% of the culture medium was replaced with fresh culture medium on the 3rd and 5th days of culture and the result was allowed to stand. From the 7th day of culture, antioxidant factors were excluded.
In addition, on the 10th day of culture, the neurotoxic substances 6-OHDA and 6-OHDA+2′-FL were added to the cells. After 48 hours, the cells were immobilized using 4% PFA (paraformaldehyde; Sigma-Aldrich) (FIG. 1). FIG. 1 illustrates the timeline of an in vitro experiment.
The viability rate of dopamine cells was determined from the immobilized cells using immunocytochemistry using tyrosine hydroxylase. Six samples were used for each group. The composition of each group is shown in Table 1 below and the number of cells was 1×10^6 which was constant for each group.

NCCc1cc(O)c(O)cc1O [6-OHDA]
number of TH (+) cells in the substantia nigra after the toxin [1]: significantly reduced | decrease in dopamine cells compared to the normal cell group [2]: caused a severe decrease in dopamine cells
